Measured values from the supplement of paper PMC8967900.

Legend:
Test in all cases: selective drug sensitivity score (sDSS, relative to normal bone marrow) (sDSS (score)); higher = more potent and effective on the cell line relative to normal bone marrow cells
Settings in all cases: 72 h
697 = system: 697
CCRF-CEM = system: CCRF-CEM
CCRF-HSB2 = system: CCRF-HSB2
COG-LL-332h = system: COG-LL-332h
COG-LL-402h = system: COG-LL-402h
HAL-01 = system: HAL-01
KARPAS-45 = system: KARPAS-45
KASUMI-2 = system: KASUMI-2
KOPN-8 = system: KOPN-8
LC4-1 = system: LC4-1
MHH-CALL-3 = system: MHH-CALL-3
MHH-CALL-4 = system: MHH-CALL-4
MOLT-16 = system: MOLT-16
NALL-1 = system: NALL-1
NALM-6 = system: NALM-6
PF-382 = system: PF-382
RPMI-8402 = system: RPMI-8402
SEM cells = system: SEM cells
SUP-B15 = system: SUP-B15
TMD5 = system: TMD5
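Further: ALL cell lines in 384-well plates, five doses spanning 10,000-fold, each plate scaled between vehicle and 100 µmol/L benzalkonium chloride controls, sDSS an adapted area-under-curve metric.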

| SMILES | selective drug sensitivity score 697 | selective drug sensitivity score (CCRF-CEM) | selective drug sensitivity score (CCRF-HSB2) | selective drug sensitivity score (COG-LL-332h) | selective drug sensitivity score (COG-LL-402h) | selective drug sensitivity score (HAL-01) | selective drug sensitivity score (KARPAS-45) | selective drug sensitivity score (KASUMI-2) | selective drug sensitivity score (KOPN-8) | selective drug sensitivity score (LC4-1) | selective drug sensitivity score (MHH-CALL-3) | selective drug sensitivity score (MHH-CALL-4) | selective drug sensitivity score (MOLT-16) | selective drug sensitivity score (NALL-1) | selective drug sensitivity score (NALM-6) | selective drug sensitivity score (PF-382) | selective drug sensitivity score (RPMI-8402) | selective drug sensitivity score (SEM cells) | selective drug sensitivity score (SUP-B15) | selective drug sensitivity score (TMD5) |
| --- | --- | --- | --- | --- | --- | --- | --- | --- | --- | --- | --- | --- | --- | --- | --- | --- | --- | --- | --- | --- |
| COc1cc2c(N3CCN(C(=O)Nc4ccc(OC(C)C)cc4)CC3)ncnc2cc1OCCCN1CCCCC1 [Tandutinib] (top concentration 1000 nM) | 0 | 0 | 0 | 0 | 0 | 0 | 0 | 0 | 0 | 0 | 0 | 0 | 0 | 0 | 0 | 0 | 0 | 4.2 | 0.5 | 0 |
| Nc1nc(N)c2nc(-c3cccc(O)c3)c(-c3cccc(O)c3)nc2n1 [TG100-115] (top concentration 10000 nM) | 0.7 | 0.4 | 3.9 | 0.2 | -0.4 | 3.2 | 0.8 | -0.4 | 2.7 | 0.1 | -0.4 | -0.4 | 1.1 | 4.6 | -0.4 | -0.2 | 0 | 0.7 | -0.3 | 3 |
| COc1cc2/c(=N/c3ccc(Br)cc3F)nc[nH]c2cc1OCC1CCN(C)CC1 [Vandetanib] (top concentration 1000 nM) | 0.18 | -0.22 | 11.6 | 0.28 | 0.18 | 1.68 | 0.68 | -0.22 | -0.22 | -0.22 | 0.78 | -0.22 | -0.22 | 2.28 | -0.22 | 0.48 | -0.22 | -0.12 | 1.08 | 5.38 |
| CC/C(=C(\c1ccccc1)c1ccc(OCCN(C)C)cc1)c1ccccc1 [Tamoxifen] (top concentration 10000 nM) | 1.62 | 0.82 | 0.92 | 1.32 | 1.22 | 1.82 | 1.92 | 5.72 | 7.92 | 4.12 | -2.48 | 0.52 | 2.82 | 3.82 | 0.42 | 1.72 | 0.42 | -1.28 | 3.02 | -0.48 |
| Cc1c(Cn2c(C)nc3c(C(=O)O)cc(N4CCOCC4)cc32)cccc1C(F)(F)F (top concentration 10000 nM) | 1.28 | 0.38 | -0.02 | 0.98 | 3.68 | 9.28 | 0.08 | -0.02 | 0.38 | -0.02 | -0.02 | 0.58 | -0.02 | 0.68 | -0.02 | -0.02 | -0.02 | 0.58 | 0.38 | -0.02 |
| CCOCc1nc2c(N)nc3ccccc3c2n1CC(C)(C)O [Resiquimod] (top concentration 10000 nM) | -4.62 | -4.92 | -4.92 | -4.72 | -4.32 | -4.62 | -4.92 | -4.92 | -4.92 | -4.12 | -4.82 | -4.92 | -3.22 | -4.92 | -4.42 | -4.72 | -4.92 | -4.92 | -1.22 | -4.92 |
| Cc1cc(C)c(CNC(=O)c2cc(-c3ccc(CN4CCOCC4)cc3)cc3c2cnn3C2CCCC2)c(=O)[nH]1 [EPZ-5687] (top concentration 10000 nM) | -0.36 | 0.14 | -0.06 | -0.36 | -0.36 | 3.24 | -0.26 | -0.36 | -0.36 | -0.36 | -0.36 | -0.36 | -0.36 | 5.34 | -0.36 | -0.36 | -0.16 | -0.36 | -0.36 | 5.74 |
| O=C(Nc1cccnc1)N1CCC(Cc2cccc(Oc3ccc(C(F)(F)F)cn3)c2)CC1 [PF-3845] (top concentration 10000 nM) | 4.06 | -0.44 | 3.26 | 2.16 | -0.84 | -0.84 | 3.96 | -0.24 | 0.46 | -0.54 | -1.34 | 0.96 | 2.66 | -1.24 | 2.86 | 1.96 | 4.66 | 0.96 | 3.16 | -0.94 |
| CC(C)(O)CC(=O)NCCn1ccc2ncnc(Nc3ccc(Oc4cccc(C(F)(F)F)c4)c(Cl)c3)c21 [TAK-285] (top concentration 2500 nM) | 0 | 0.2 | 0 | 0 | 0 | 3.1 | 0 | 0 | 0 | 0 | 0 | 0 | 0 | 0.1 | 0 | 0 | 0 | 0 | 0 | 3.1 |
